# Data as given in patent US11419834B2, “Methods for treating diseases or infections caused by or associated with H. pylori using a halogenated salicylanilide” (Rhode Island Hospital, priority 2019, dated 2022).
# “Also recorded” adds a separate entry of the source.
# What was measured:
# [1] = test system: H. Pylori 49503; test: Broth microdilution assay, MIC; assay type: cell-based; details: Helicobacter pylori; strain H. Pylori 49503
# [2] = test system: H. pylori cells (strain 60190); test: Motility assay in soft agar; assay type: cell-based, Helicobacter pylori; details: for H. pylori motility (swarming) versus concentration: niclosamide from 0.10 to 0.20 μg/mL (75-200 ng/mL in soft agar)
# [3] = test system: H. pylori bacteria (strain 60190); test: Time to kill assay; assay type: cell-based, Helicobacter pylori; details: 4×MIC (1 μg/mL); 10^9 cells/mL
# Method: Niclosamide was therefore tested time to kill assays were used to confirm the killing properties of niclosamide against H. pylori. Agar grown H. pylori bacteria (strain 60190) were suspended in fresh Mueller Hinton Broth (MHB) with 10% Fetal bovine serum (FBS) to a density of 10^9 cells/mL and placed into 10 mL tubes (BD Biosciences). […] Aliquots were periodically drawn from the tubes, serially diluted and plated onto Brucella agar (BD Biosciences) supplemented with 10% FBS. CFUs were counted after a 3-day incubation and assays were carried out in duplicate. […] Of note, clarithromycin, a commonly prescribed antibiotic for H. pylori treatment, is also bacteriostatic (De Francesco et al. World journal of gastrointestinal pathophysiology 2, 35 (2011)).
# [4] = test system: H. pylori bacteria; test: Scanning electron microscopy of morphology; assay type: cell-based, Helicobacter pylori; details: 2 hours
# [5] = test system: H. Pylori 43504; test: Broth microdilution assay, MIC; assay type: cell-based; details: Helicobacter pylori; strain H. Pylori 43504
# [6] = test system: H. pylori reference strain 60190 (ATCC 49503); test: Broth microdilution assay, MIC; assay type: cell-based; details: Helicobacter pylori, ATCC49503, 72 h; H. pylori strain 60190; Müller-Hinton broth + 10% FBS, 3 days
# [7] = test system: H. pylori strain 60190; test: Minimum bactericidal concentration (plating from MIC assay); assay type: cell-based, Helicobacter pylori; details: Helicobacter pylori; H. pylori strain 60190; read-out: MBC
# [8] = test system: H. Pylori 51932; test: Broth microdilution assay, MIC; assay type: cell-based; details: Helicobacter pylori; strain H. Pylori 51932
# [9] = test system: H. pylori vacA gene expression; test: RT-PCR study on VacA toxin expression; assay type: cell-based, Helicobacter pylori; details: sub-MIC level of 200 ng/mL, 3 days
# [10] = test system: AGS cells invaded by H. pylori; test: Invasion, gentamicin protection assay; assay type: cell-based, Helicobacter pylori; details: 2×MIC, 0.5 μg/mL, 20 hours, AGS cell lines
# Method: The AGS (Gastric adenocarcinoma cell lines) cell line was used to examine inhibition of adhesion and invasion of H. pylori (strain 60190) by niclosamide, as described by Schmitt et al. (Front Cell Infect Microbiol. 2013; 3:93). The AGS cells were grown in Dulbecco's Modified Eagle Medium (DMEM, ex. Gibco), supplemented with 10% fetal bovine serum (Gibco) and 1% penicillin/streptomycin (Gibco) and maintained at 37° C. in 5% C02. Then, 5×10^5 cells in antibiotic and serum-free DMEM were seeded in 6-well plates 24 hours prior to infection. H. pylori bacteria at a multiplicity of infection (MOI)=100 were added and allowed to adhere to the surface of the AGS cells. Planktonic bacteria were removed after 2 hours and DMEM with niclosamide (2×MIC) was then added to the wells containing the AGS. The mammalian cells were lysed by 0.1% saponin after 20 hours of incubation and the adhered bacteria were then serially diluted, plated in Brucella agar supplemented with 10% FBS, and incubated as described above. A control arm of DMSO and a comparator using amoxicillin at a concentration of 0.1 μg/mL (10×MIC) was also assessed. […]
# [11] = test system: H. pylori infection; test: Galleria mellonella in vivo infection model; details: 25 mg/kg, injected 2 hours after H. pylori inoculation
# Method: Assays were performed as described by Giannouli et al. (BMC Microbiol. 2014 Aug. 27; 14:228), an alternative model host for the evaluation of antimicrobial agents against H. pylori infection. Twelve randomly selected G. mellonella larvae (Vanderhorst, Inc., St. Mary's, OH, USA) between 300-350 mg were used for each group in the experiment. H. pylori cells were washed with PBS and diluted to OD600 nm=0.3, before inoculation into G. mellonella larvae. A 10 μL inoculum was injected into the last left proleg using a 10 μL Hamilton syringe. After 2 hours, compounds were administered at into the last right proleg and the wax moths were incubate at 37° C. Niclosamide was administered at a concentration of 25 mg/kg. Clarithromycin administered at a concentration of 10 mg/kg was used as a comparator. Three control groups were included (1) injected with PBS only; (2) inoculated with H. pylori but treated with sham injections; and (3) no manipulation. G. mellonella survival was evaluated up to 120 hours. The surviving larvae were monitored every 24 hours and were considered dead if they were unresponsive to external stimuli (touch). Killing curves and differences in survival were analysed by the Kaplan-Meier method using GraphPad Prism version 6.04 (GraphPad Software, La Jolla, Calif., USA). Statistical analysis (Kruskal-Wallis test) was carried out using the same program.
smiles,measurement,setting,value
"O=C(Nc1ccc([N+](=O)[O-])cc1Cl)c1cc(Cl)ccc1O [Niclosamide, niclosamide]",MIC,[1],0.25 µg/mL
same,H. pylori motility (swarming) versus concentration,[2],impeded H. Pylon swarming movement in a dose-dependent manner
same,H. pylori motility (swarming) versus concentration,[2]; listed as niclosamide,decreased in a dose-dependent manner
same,H. pylori motility,[2]; sub-MIC (0.2 μg/mL),abated
same,killing kinetics (bacteriostatic or bactericidal),[3],bacteriostatic
same,morphology (helical shape) by SEM,[4]; 1× MIC,shortened
same,morphology by SEM,[4]; 4× and 8× MIC,Cocco-bacillary
same,effect on bacterial flagella by SEM,[4]; niclosamide treatment,flagellar deformation
same,MIC,[5],0.125 µg/mL
same,MIC,[6],0.25 µg/mL
same,MBC,[7],0.5 µg/mL
same,MIC,[8],0.5 µg/mL
same,effect on VacA expression compared to housekeeping gene rpoB,[9],down-regulated vacA gene; also recorded: downregulates VacA expression
same,reduction of intracellular CFU,[10],3 log10 CFU
same,survival of wax-moth larvae up to 120 hours,[11],About 60%
